Data published in paper PMC6198068, “Discovery of a Novel Nav1.7 Inhibitor From Cyriopagopus albostriatus Venom With Potent Analgesic Efficacy” (Frontiers in Pharmacology, 2018).
Where a SMILES comes first, the peptide text is derived from it. Bridges are numbered along the chain shown (N, C = ends).

Columns and labels:
Nav1.6 = molecular target: T1, Nav1.6 (Homo sapiens, UniProt Q9UQD0); assay: Whole-cell patch-clamp, Nav1.6 in HEK293T cells; format: cell-based; details: mean ± SEM
T1 construct: expressed in transfected cells; host or cells: HEK293T
From the text: (§1) The cDNA genes encoding rat Nav1.4 and human Nav1.7 were subcloned into vectors pRGB4 and pcDNA3.1-mod, respectively. Mutations of rNav1.4 (N655D, Q657E, and N655D/Q657E) and hNav1.7 (D816N, E818Q, and D816N/E818Q) were constructed using the Gene Tailor Site-Directed Mutagenesis system (Invitrogen, Carlsbad, CA, United States), according to the manufacturer’s instructions. Nav1.2–Nav1.7 and mutant plasmids together with eGFP were transiently transfected into HEK293T cells while Nav1.8 together with eGFP was transiently transfected into ND7/23 cells by Lipofectamine 2000 (Invitrogen, Carlsbad, CA, United States). Additionally, plasmids β1- and β2-eGFP encoding the human β1 and β2 subunits, respectively, were co-transfected with those encoding WT Nav1.7 and Nav1.7 mutations in HEK293T cells. […] Cells with green fluorescent protein fluorescence were selected for whole-cell patch-clamp recordings 24 h after transfection.
(§2) Whole-cell patch-clamp recordings were performed at room temperature (20–25°C) using an EPC 10 USB Patch Clamp Amplifier (HEKA, Elektronik, Lambrecht, Germany). […] Data was analyzed by software Igo Pro 6.10A (WaveMetrics, Lake Oswego, OR, United States), SigmaPlot 10.0 (Sigma-Aldrich, St. Louis, MO, United States), OriginPro 8 (OriginLab Corp., Northampton, MA, United States), and GraphPad Prism 5 (GraphPad Software, San Diego, CA, United States). […]

WT Nav1.7 = molecular target: T2, WT Nav1.7 (Homo sapiens, UniProt Q15858); assay: Time course of Nav1.7 inhibition and recovery upon washing; format: cell-based; details: 1 μM, n = 4
T2 construct: expressed in transfected cells; host or cells: HEK293T
From the text: as §1, §2

Nav1.4/N655D = assay: Whole-cell patch-clamp, Nav1.4/N655D in HEK293T cells; format: cell-based, rat; details: 1 μM, n = 4–5 cells
From the text: as §1, §2

Nav1.4/Q657E = molecular target: T3, Nav1.4/Q657E (Rattus norvegicus, UniProt P15390, Q657E); assay: Whole-cell patch-clamp, Nav1.4/Q657E in HEK293T cells; format: cell-based
T3 construct: expressed in transfected cells; host or cells: HEK293T
From the text: as §1, §2

Nav1.4/N655D/Q657E = molecular target: T4, Nav1.4/N655D/Q657E (Rattus norvegicus, UniProt P15390, N655D/Q657E); assay: Whole-cell patch-clamp, Nav1.4/N655D/Q657E in HEK293T cells; format: cell-based
T4 construct: expressed in transfected cells; host or cells: HEK293T
From the text: as §1, §2

Nav1.7/E818Q = assay: Whole-cell patch-clamp, Nav1.7/E818Q in HEK293T cells; format: cell-based, human; details: 1 μM, n = 5 cells
From the text: as §1, §2

hot plate test in mice = assay: Hot plate test; format: in vivo, ICR mice; details: 55 ± 1°C, 30 min after injection, control 10.6 ± 1.1 s, mean ± SEM, n = 6–8
Method: (§3) The ICR mice (18–22 g) used in this study were purchased from the Experimental Animal Center of SLac-kinda (Changsha, China). The animals were maintained at 20–25°C and freely allowed to standard rodent chow and water ad libitum. Ethical approval for in vivo experiments in animals was approved by the Animal Care and Use Committee (ACUC) at the Hunan Province Animal Management Office (HPAMO).
According to a previous method ([Meng et al., 2017]), a hot plate apparatus (model YLS-21A, Jinan, China) maintained at 55 ± 1°C, was used to measure the pain threshold of mice subjected to a thermal stimulus. Each female mouse was placed on hot plate to observe its pain response (hind-paw-licking or jumping) acted as its own control. The mice whose latent response times were shorter than 5 s or longer than 30 s were excluded from the test.

[1] = Adverse effects at the doses used in the mouse pain models; format: in vivo, ICR mice; details: dose of Ca2a used in this study (50–200 μg/kg i.p.)
Method: as §3

[2] = mean ± SEM, n = 4–5 cells per data point

T1 sequence (Q9UQD0 whole entry): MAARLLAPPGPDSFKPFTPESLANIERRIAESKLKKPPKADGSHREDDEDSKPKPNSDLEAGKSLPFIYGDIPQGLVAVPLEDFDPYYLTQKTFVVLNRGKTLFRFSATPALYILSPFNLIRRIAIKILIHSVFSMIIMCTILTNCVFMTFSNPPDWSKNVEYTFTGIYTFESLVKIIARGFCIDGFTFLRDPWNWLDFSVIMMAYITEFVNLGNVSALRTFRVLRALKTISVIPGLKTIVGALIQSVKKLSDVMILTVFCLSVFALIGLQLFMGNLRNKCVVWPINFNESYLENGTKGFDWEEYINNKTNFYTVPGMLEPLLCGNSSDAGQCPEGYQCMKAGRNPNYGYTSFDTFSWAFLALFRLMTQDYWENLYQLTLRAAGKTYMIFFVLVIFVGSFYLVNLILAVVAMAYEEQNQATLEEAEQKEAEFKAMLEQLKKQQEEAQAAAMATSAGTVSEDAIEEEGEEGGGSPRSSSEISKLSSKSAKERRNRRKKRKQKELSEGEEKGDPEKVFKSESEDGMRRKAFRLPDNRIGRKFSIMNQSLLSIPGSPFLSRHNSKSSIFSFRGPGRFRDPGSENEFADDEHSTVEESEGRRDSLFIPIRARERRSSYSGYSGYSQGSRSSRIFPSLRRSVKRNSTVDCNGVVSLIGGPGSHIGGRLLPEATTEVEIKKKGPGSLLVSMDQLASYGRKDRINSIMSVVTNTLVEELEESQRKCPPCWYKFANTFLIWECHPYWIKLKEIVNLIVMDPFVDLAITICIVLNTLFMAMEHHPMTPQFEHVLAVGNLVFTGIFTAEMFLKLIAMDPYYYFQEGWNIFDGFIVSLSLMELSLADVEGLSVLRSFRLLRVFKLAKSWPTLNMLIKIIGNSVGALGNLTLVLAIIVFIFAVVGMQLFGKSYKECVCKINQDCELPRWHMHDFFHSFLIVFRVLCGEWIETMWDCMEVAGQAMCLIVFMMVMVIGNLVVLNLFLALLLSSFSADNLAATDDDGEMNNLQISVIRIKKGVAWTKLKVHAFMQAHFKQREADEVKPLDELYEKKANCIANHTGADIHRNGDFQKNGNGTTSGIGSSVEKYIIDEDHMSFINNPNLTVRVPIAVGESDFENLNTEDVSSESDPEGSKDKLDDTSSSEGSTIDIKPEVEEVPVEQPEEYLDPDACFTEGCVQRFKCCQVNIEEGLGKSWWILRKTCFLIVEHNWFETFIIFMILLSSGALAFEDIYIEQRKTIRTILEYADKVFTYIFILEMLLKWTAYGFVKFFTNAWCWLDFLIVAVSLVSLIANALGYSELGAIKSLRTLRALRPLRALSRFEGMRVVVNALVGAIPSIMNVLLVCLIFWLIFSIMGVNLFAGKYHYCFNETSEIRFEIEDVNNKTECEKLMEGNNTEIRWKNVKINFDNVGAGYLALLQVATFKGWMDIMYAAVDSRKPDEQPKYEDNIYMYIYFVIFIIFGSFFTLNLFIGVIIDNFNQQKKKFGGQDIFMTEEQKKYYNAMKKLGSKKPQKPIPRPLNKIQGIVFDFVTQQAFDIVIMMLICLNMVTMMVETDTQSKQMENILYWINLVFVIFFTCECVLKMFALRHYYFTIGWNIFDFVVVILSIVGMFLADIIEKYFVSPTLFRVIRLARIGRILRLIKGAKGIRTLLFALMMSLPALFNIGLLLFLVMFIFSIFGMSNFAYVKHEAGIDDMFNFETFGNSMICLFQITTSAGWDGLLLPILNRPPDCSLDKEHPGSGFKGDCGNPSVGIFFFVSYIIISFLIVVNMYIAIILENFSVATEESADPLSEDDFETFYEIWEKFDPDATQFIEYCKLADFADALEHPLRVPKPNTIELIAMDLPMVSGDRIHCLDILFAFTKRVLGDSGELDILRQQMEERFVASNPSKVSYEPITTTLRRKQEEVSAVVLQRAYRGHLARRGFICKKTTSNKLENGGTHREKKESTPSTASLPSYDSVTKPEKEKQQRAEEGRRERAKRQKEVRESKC
T3 sequence (P15390 whole entry Q657E): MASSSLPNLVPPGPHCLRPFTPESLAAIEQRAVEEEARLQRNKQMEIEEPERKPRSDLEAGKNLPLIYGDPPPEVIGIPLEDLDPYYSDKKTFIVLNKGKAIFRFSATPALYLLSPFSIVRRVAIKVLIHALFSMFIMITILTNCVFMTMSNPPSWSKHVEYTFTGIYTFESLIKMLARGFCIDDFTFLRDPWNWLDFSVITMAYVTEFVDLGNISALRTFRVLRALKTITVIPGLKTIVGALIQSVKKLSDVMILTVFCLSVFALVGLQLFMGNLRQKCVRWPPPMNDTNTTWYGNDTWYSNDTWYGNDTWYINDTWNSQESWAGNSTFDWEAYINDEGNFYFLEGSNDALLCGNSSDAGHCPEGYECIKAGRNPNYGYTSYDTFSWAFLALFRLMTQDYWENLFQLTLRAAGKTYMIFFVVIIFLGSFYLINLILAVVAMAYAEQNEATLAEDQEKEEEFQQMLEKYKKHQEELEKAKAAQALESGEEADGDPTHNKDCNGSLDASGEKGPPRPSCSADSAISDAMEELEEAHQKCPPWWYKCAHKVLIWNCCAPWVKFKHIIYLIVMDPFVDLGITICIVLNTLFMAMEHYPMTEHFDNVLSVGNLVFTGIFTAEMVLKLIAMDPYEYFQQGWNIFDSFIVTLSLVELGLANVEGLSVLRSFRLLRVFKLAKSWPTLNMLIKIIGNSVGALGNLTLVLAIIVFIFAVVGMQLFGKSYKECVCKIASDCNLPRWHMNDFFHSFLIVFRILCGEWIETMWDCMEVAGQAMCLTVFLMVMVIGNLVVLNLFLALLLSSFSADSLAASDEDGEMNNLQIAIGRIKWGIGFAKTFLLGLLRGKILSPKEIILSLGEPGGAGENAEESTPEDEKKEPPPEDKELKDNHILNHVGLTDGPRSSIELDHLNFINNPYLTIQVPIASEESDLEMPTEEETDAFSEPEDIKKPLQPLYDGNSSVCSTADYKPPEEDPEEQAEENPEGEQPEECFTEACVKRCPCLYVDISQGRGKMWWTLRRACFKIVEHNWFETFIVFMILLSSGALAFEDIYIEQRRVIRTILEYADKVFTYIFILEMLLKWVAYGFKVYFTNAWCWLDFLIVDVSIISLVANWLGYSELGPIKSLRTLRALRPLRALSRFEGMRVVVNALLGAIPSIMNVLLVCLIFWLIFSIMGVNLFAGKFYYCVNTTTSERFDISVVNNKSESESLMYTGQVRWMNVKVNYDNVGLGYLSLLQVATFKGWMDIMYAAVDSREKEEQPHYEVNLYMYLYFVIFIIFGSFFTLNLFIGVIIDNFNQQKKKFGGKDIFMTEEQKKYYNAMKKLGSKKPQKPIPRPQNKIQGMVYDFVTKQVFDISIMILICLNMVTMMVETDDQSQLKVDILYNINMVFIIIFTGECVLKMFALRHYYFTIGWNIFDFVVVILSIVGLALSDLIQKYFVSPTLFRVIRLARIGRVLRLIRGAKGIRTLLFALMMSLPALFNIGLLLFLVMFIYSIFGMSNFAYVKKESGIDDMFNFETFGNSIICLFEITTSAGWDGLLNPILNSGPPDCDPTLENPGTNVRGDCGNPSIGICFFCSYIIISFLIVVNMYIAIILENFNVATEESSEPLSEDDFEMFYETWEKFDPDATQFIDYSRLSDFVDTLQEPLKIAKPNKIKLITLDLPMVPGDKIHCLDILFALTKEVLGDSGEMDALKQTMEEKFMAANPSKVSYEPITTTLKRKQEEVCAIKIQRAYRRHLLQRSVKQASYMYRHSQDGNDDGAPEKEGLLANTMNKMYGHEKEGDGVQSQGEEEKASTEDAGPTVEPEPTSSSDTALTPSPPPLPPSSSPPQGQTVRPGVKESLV
T4 sequence (P15390 whole entry N655D/Q657E): as the sequence (P15390 whole entry Q657E) above, with N655D counted along it

CC(C)C[C@H](NC(=O)[C@H](CC(=O)O)NC(=O)[C@H](Cc1ccc(O)cc1)NC(=O)[C@H](CCCCN)NC(=O)[C@@H]1CSSC[C@@H]2NC(=O)[C@H](CCCCN)NC(=O)[C@H](CC(=O)O)NC(=O)[C@H](CC(N)=O)NC(=O)[C@H](CO)NC(=O)[C@@H]3CCCN3C(=O)[C@H](CC(N)=O)NC(=O)[C@@H]3CSSC[C@H](NC(=O)[C@H](C(C)C)NC(=O)[C@H](CC(C)C)NC(=O)[C@H](CO)NC(=O)[C@H](CO)NC(=O)[C@H](CO)NC(=O)[C@H](CCCCN)NC(=O)[C@H](CSSC[C@H](NC(=O)[C@H](C)N)C(=O)N[C@@H](CC(C)C)C(=O)NCC(=O)N[C@@H](Cc4ccccc4)C(=O)NCC(=O)N[C@@H](CCC(=O)O)C(=O)N[C@@H](CCCCN)C(=O)N3)NC2=O)C(=O)N[C@@H](CO)C(=O)N[C@@H](CCC(N)=O)C(=O)N[C@@H](CCCCN)C(=O)N[C@@H](Cc2c[nH]cn2)C(=O)N[C@@H](CCCCN)C(=O)N[C@@H](Cc2c[nH]c3ccccc23)C(=O)N1)C(=O)O [Ca2a] (H-ACLGFGEKCNPSNDKCCKSSSLVCSQKHKWCKYDL-OH; disulfide 2-17, 9-24, 16-31 (inferred); N-terminus and C-terminus assumed)
decrease of Nav1.6 current amplitude (Nav1.6; 1 μM, 50 ms to −10 mV from −100 mV): 78.7 ± 2.9% | IC50 (Nav1.6; whole-cell patch-clamp, n = 4–7 cells per data point): 314 ± 6.3 nM | τoff, WT Nav1.7 (WT Nav1.7; recovery upon washing with bath solution): 295.6 ± 27.5 s | τon, WT Nav1.7 (WT Nav1.7): 18.0 ± 2.5 s | inhibitory effect on Nav1.4/N655D (Nav1.4/N655D): no inhibitory effect | inhibition of peak current of Nav1.4/Q657E (Nav1.4/Q657E; 1 μM, n = 4–5 cells): significantly inhibited | IC50 (Nav1.4/Q657E; [2]): 269 ± 14.9 nM | inhibition of peak current of Nav1.4/N655D/Q657E (Nav1.4/N655D/Q657E; 1 μM, n = 4–5 cells): significantly inhibited | IC50 (Nav1.4/N655D/Q657E; [2]): 238 ± 26.1 nM | activity on Nav1.7/E818Q (Nav1.7/E818Q): no activity | latency time, hot plate (hot plate test in mice; 50 μg/kg i.p.): 12.9 ± 0.8 s | latency time, hot plate (hot plate test in mice; 100 μg/kg i.p.): 15.4 ± 1.2 s | latency time, hot plate (hot plate test in mice; 200 μg/kg i.p.): 18.1 ± 1.6 s | adverse effects [1]: does not cause significant adverse effects
